Converted amounts (≈) assume the structure as drawn.

What all share (assay type): functional
One experiment concerns Aspergillus niger. Put plainly: Antifungal activity against Aspergillus niger KCTC 1231 after 2 days by twofold broth dilution method. The note with it: KCTC 1231, 48 h. A general note: Dilution methods test growth across graded concentrations, often in twofold steps.
In another experiment the test system is Candida tropicalis. Put plainly: Antifungal activity against Candida tropicalis Berkout KCCM 50662 after 1 day by twofold broth dilution method. The note with it: KCCM 50662, 24 h.
A further experiment relates to Candida albicans. The experiment in a line: Antifungal activity against Candida albicans Berkout KCCM 50235 after 1 day by twofold broth dilution method. The note with it: KCCM 50235, 24 h.
A further experiment has as its system Cryptococcus neoformans. The experiment in a line: Antifungal activity against Cryptococcus neoformans KCCM 50564 after 1 day by twofold broth dilution method. The settings on record: KCCM 50564, 24 h.
For another experiment, the system named is Aspergillus flavus. The experiment in a line: Antifungal activity against Aspergillus flavus KCCM 11899 by twofold broth dilution method.
The test system of the next experiment is Pichia kudriavzevii. Put plainly: Antifungal activity against Candida krusei Berkout KCCM 11655 after 1 day by twofold broth dilution method. The settings on record: KCCM 11655, 24 h.

Regarding `CCc1nc2c(o1)C(=O)C(Nc1ccc(O)cc1)=C(Br)C2=O`, the minimum inhibitory concentration (MIC) against Aspergillus niger is 50 µg/mL (≈ 138 µM); against Candida tropicalis, 12.5 µg/mL (≈ 34.4 µM); against Candida albicans, 50 µg/mL (≈ 138 µM); in the experiment on Cryptococcus neoformans it was 12.5 µg/mL (≈ 34.4 µM); with Aspergillus flavus it was 25 µg/mL (≈ 68.8 µM); against Pichia kudriavzevii, 25 µg/mL (≈ 68.8 µM).

Turning to `CCc1nc2c(o1)C(=O)C(Nc1cccc(F)c1)=C(Br)C2=O`, the minimum inhibitory concentration (MIC) amounted to 6.3 µg/mL (≈ 17.3 µM) in the experiment on Aspergillus niger; 3.2 µg/mL (≈ 8.76 µM) against Candida tropicalis; 12.5 µg/mL (≈ 34.2 µM) against Candida albicans; 6.3 µg/mL (≈ 17.3 µM) in the experiment on Cryptococcus neoformans; 6.3 µg/mL (≈ 17.3 µM) in the experiment with Aspergillus flavus; 6.3 µg/mL (≈ 17.3 µM) against Pichia kudriavzevii.

On to `CCc1nc2c(o1)C(=O)C(Nc1ccc(Cl)cc1)=C(Br)C2=O`, for which the MIC was 3.2 µg/mL (≈ 8.39 µM) in the experiment with Aspergillus niger; 25 µg/mL (≈ 65.5 µM) with Candida tropicalis; 6.3 µg/mL (≈ 16.5 µM) in the experiment with Candida albicans; 6.3 µg/mL (≈ 16.5 µM) in the experiment on Cryptococcus neoformans; 3.2 µg/mL (≈ 8.39 µM) in the experiment with Aspergillus flavus; 6.3 µg/mL (≈ 16.5 µM) in the experiment on Pichia kudriavzevii.

Turning to `Nc1nc(=O)[nH]cc1F` [FLUCYTOSINE], the MIC in the experiment with Aspergillus niger worked out at 1.6 µg/mL (≈ 12.4 µM); in the experiment on Candida tropicalis, 3.2 µg/mL (≈ 24.8 µM); in the experiment with Candida albicans, 3.2 µg/mL (≈ 24.8 µM); against Cryptococcus neoformans, 3.2 µg/mL (≈ 24.8 µM); in the experiment with Aspergillus flavus, 1.6 µg/mL (≈ 12.4 µM); in the experiment on Pichia kudriavzevii, 3.2 µg/mL (≈ 24.8 µM).

With `CCc1nc2c(o1)C(=O)C(Nc1ccc(I)cc1)=C(Br)C2=O`, the MIC in the experiment on Aspergillus niger turned out to be 6.3 µg/mL (≈ 13.3 µM); in the experiment on Candida tropicalis it was 6.3 µg/mL (≈ 13.3 µM); in the experiment on Candida albicans it was 6.3 µg/mL (≈ 13.3 µM); with Cryptococcus neoformans, 3.2 µg/mL (≈ 6.76 µM); with Aspergillus flavus it was 3.2 µg/mL (≈ 6.76 µM); with Pichia kudriavzevii it was 3.2 µg/mL (≈ 6.76 µM).

For `CCc1nc2c(o1)C(=O)C(Nc1ccc([N+](=O)[O-])cc1)=C(Br)C2=O`, the MIC against Aspergillus niger was 25 µg/mL (≈ 63.7 µM); against Candida tropicalis it was 50 µg/mL (≈ 127 µM); against Candida albicans, 50 µg/mL (≈ 127 µM); in the experiment on Cryptococcus neoformans it was 25 µg/mL (≈ 63.7 µM); with Aspergillus flavus, 25 µg/mL (≈ 63.7 µM); in the experiment on Pichia kudriavzevii, 50 µg/mL (≈ 127 µM).

Consider `CCc1nc2c(o1)C(=O)C(Sc1ccc(CC)c(CC)c1)=C(Sc1ccc(CC)c(CC)c1)C2=O`, for which the MIC in the experiment on Aspergillus niger is 25 µg/mL (≈ 49.4 µM); against Candida tropicalis it was 25 µg/mL (≈ 49.4 µM); against Candida albicans it was 12.5 µg/mL (≈ 24.7 µM); against Cryptococcus neoformans, 25 µg/mL (≈ 49.4 µM); in the experiment on Aspergillus flavus, 25 µg/mL (≈ 49.4 µM); in the experiment with Pichia kudriavzevii, 50 µg/mL (≈ 98.9 µM).

Consider `CCc1nc2c(o1)C(=O)C(Nc1cccc(C#N)c1)=C(Br)C2=O`, for which the MIC in the experiment on Aspergillus niger was determined as 12.5 µg/mL (≈ 33.6 µM); against Candida tropicalis it was 6.3 µg/mL (≈ 16.9 µM); against Candida albicans, 12.5 µg/mL (≈ 33.6 µM); with Cryptococcus neoformans it was 12.5 µg/mL (≈ 33.6 µM); in the experiment with Aspergillus flavus, 6.3 µg/mL (≈ 16.9 µM); in the experiment with Pichia kudriavzevii it was 50 µg/mL (≈ 134 µM).

As for `CCc1nc2c(N)cccc2o1`, the minimum inhibitory concentration (MIC) is above 100 µg/mL against Aspergillus niger; 50 µg/mL (≈ 308 µM) with Candida tropicalis; above 100 µg/mL against Candida albicans; 100 µg/mL (≈ 617 µM) in the experiment with Cryptococcus neoformans; above 100 µg/mL in the experiment with Aspergillus flavus; 100 µg/mL (≈ 617 µM) in the experiment with Pichia kudriavzevii.

As to `CCc1nc2c(o1)C(=O)C(Nc1ccccc1)=C(Br)C2=O`, the MIC in the experiment on Aspergillus niger came to 1.6 µg/mL (≈ 4.61 µM); in the experiment on Candida tropicalis, 3.2 µg/mL (≈ 9.22 µM); in the experiment on Candida albicans it was 1.6 µg/mL (≈ 4.61 µM); in the experiment with Cryptococcus neoformans it was 1.6 µg/mL (≈ 4.61 µM); against Aspergillus flavus it was 3.2 µg/mL (≈ 9.22 µM); against Pichia kudriavzevii, 3.2 µg/mL (≈ 9.22 µM).

Turning to `CCc1nc2c(o1)C(=O)C(Sc1ccc(Br)c(Br)c1)=C(Sc1ccc(Br)c(Br)c1)C2=O`, the MIC in the experiment with Aspergillus niger amounted to 25 µg/mL (≈ 35.3 µM); in the experiment on Candida tropicalis it was 50 µg/mL (≈ 70.5 µM); in the experiment on Candida albicans, 50 µg/mL (≈ 70.5 µM); with Cryptococcus neoformans it was 12.5 µg/mL (≈ 17.6 µM); in the experiment with Aspergillus flavus, 25 µg/mL (≈ 35.3 µM); in the experiment on Pichia kudriavzevii, 12.5 µg/mL (≈ 17.6 µM).

For the compound `CCc1nc2c(o1)C(=O)C(Sc1ccc(C)c(C)c1)=C(Sc1ccc(C)c(C)c1)C2=O`, the MIC with Aspergillus niger was determined as 12.5 µg/mL (≈ 27.8 µM); against Candida tropicalis it was 12.5 µg/mL (≈ 27.8 µM); against Candida albicans it was 25 µg/mL (≈ 55.6 µM); against Cryptococcus neoformans, 12.5 µg/mL (≈ 27.8 µM); in the experiment on Aspergillus flavus it was 6.3 µg/mL (≈ 14 µM); against Pichia kudriavzevii, 3.2 µg/mL (≈ 7.12 µM).

As for `CCc1nc2c(o1)C(=O)C(Nc1cccc(Cl)c1)=C(Br)C2=O`, the MIC in the experiment on Aspergillus niger amounted to 3.2 µg/mL (≈ 8.39 µM); against Candida tropicalis, 6.3 µg/mL (≈ 16.5 µM); in the experiment on Candida albicans, 6.3 µg/mL (≈ 16.5 µM); against Cryptococcus neoformans it was 3.2 µg/mL (≈ 8.39 µM); against Aspergillus flavus, 3.2 µg/mL (≈ 8.39 µM); against Pichia kudriavzevii it was 6.3 µg/mL (≈ 16.5 µM).

For the compound `CCc1nc2c(o1)C(=O)C(Nc1ccc(Br)cc1)=C(Br)C2=O`, the minimal inhibitory concentration (MIC) against Aspergillus niger came out at 0.8 µg/mL (≈ 1.88 µM); in the experiment with Candida tropicalis it was 3.2 µg/mL (≈ 7.51 µM); in the experiment with Candida albicans, 0.8 µg/mL (≈ 1.88 µM); in the experiment on Cryptococcus neoformans, 1.6 µg/mL (≈ 3.76 µM); in the experiment on Aspergillus flavus, 1.6 µg/mL (≈ 3.76 µM); with Pichia kudriavzevii, 3.2 µg/mL (≈ 7.51 µM).

Take `CCc1nc2c(o1)C(=O)C(Nc1cccc(O)c1)=C(Br)C2=O`: the MIC with Aspergillus niger is 50 µg/mL (≈ 138 µM); in the experiment on Candida tropicalis, 6.3 µg/mL (≈ 17.3 µM); against Candida albicans it was 50 µg/mL (≈ 138 µM); against Cryptococcus neoformans it was 25 µg/mL (≈ 68.8 µM); against Aspergillus flavus it was 25 µg/mL (≈ 68.8 µM); against Pichia kudriavzevii, 25 µg/mL (≈ 68.8 µM).

On to `CCc1nc2c(o1)C(=O)C(Nc1ccc(F)cc1)=C(Br)C2=O`, for which the MIC in the experiment on Aspergillus niger is 6.3 µg/mL (≈ 17.3 µM); in the experiment on Candida tropicalis it was 6.3 µg/mL (≈ 17.3 µM); against Candida albicans, 12.5 µg/mL (≈ 34.2 µM); against Cryptococcus neoformans, 6.3 µg/mL (≈ 17.3 µM); against Aspergillus flavus, 3.2 µg/mL (≈ 8.76 µM); against Pichia kudriavzevii it was 6.3 µg/mL (≈ 17.3 µM).

As for `CCc1nc2c(o1)C(=O)C(Nc1ccc(OC)cc1)=C(Br)C2=O`, the MIC in the experiment on Aspergillus niger came out at 3.2 µg/mL (≈ 8.48 µM); in the experiment on Candida tropicalis it was 12.5 µg/mL (≈ 33.1 µM); against Candida albicans, 6.35 µg/mL (≈ 16.8 µM); against Cryptococcus neoformans, 3.2 µg/mL (≈ 8.48 µM); with Aspergillus flavus it was 6.3 µg/mL (≈ 16.7 µM); against Pichia kudriavzevii, 1.6 µg/mL (≈ 4.24 µM).

For `CCc1nc2c(o1)C(=O)C(Sc1ccccc1)=C(Sc1ccccc1)C2=O`, the minimum inhibitory concentration (MIC) against Aspergillus niger, with Candida tropicalis, against Candida albicans, against Cryptococcus neoformans, against Aspergillus flavus and against Pichia kudriavzevii was 12.5 µg/mL (≈ 31.8 µM) each time.

Consider `CCc1nc2c(o1)C(=O)C(Nc1ccc(C#N)cc1)=C(Br)C2=O`, for which the MIC against Aspergillus niger is 25 µg/mL (≈ 67.2 µM); in the experiment on Candida tropicalis, 50 µg/mL (≈ 134 µM); against Candida albicans it was 50 µg/mL (≈ 134 µM); against Cryptococcus neoformans, 25 µg/mL (≈ 67.2 µM); in the experiment on Aspergillus flavus, 25 µg/mL (≈ 67.2 µM); with Pichia kudriavzevii it was 50 µg/mL (≈ 134 µM).

In general, MIC refers to the least concentration at which growth counts as inhibited. Read a high MIC as weaker potency.

For the origin of these results see ChEMBL document CHEMBL1156041, “Synthesis and antifungal activity of benzo[d]oxazole-4,7-diones” (2009).
